{"source": "ChEMBL document CHEMBL5257043", "about": "“Bulbiferamide, an Antitrypanosomal Hexapeptide Cyclized via an N-Acylindole Linkage from a Marine Obligate Microbulbifer” (J Nat Prod, 2023)", "key": {"Trypanosoma cruzi": {"system": "Trypanosoma cruzi", "experiment": "Antitrypanosomal activity against Trypanosoma cruzi Tulahuen epimastigotes incubated for 24 hrs by cell titer glo luminescent assay", "format": "functional, organism-based"}, "P338": {"system": "P338", "experiment": "Cytotoxicity against mouse P388 cells at 100 uM incubated for 84 hrs by MTT assay", "format": "functional, cell-based"}, "Kocuria rhizophila": {"system": "Kocuria rhizophila", "experiment": "Antimicrobial activity against Kocuria rhizophila ATCC9341 at 100 ug/ml incubated for 24 hrs by microplate reader assay", "format": "functional, organism-based", "conditions": "dose 100.0 µg/ml"}, "Staphylococcus aureus": {"system": "Staphylococcus aureus", "experiment": "Antimicrobial activity against Staphylococcus aureus FDA209 JC-1 at 100 ug/ml incubated for 24 hrs by microplate reader assay", "format": "functional, organism-based", "conditions": "dose 100.0 µg/ml"}, "Escherichia coli": {"system": "Escherichia coli", "experiment": "Antimicrobial activity against Escherichia coli NIHJ JC-2 at 100 ug/ml incubated for 24 hrs by microplate reader assay", "format": "functional, organism-based", "conditions": "dose 100.0 µg/ml"}, "Ralstonia solanacearum": {"system": "Ralstonia solanacearum", "experiment": "Antimicrobial activity against Ralstonia solanacearum SUPP1541 at 100 ug/ml incubated for 24 hrs by microplate reader assay", "format": "functional, organism-based", "conditions": "dose 100.0 µg/ml"}, "[1]": {"system": "Agrobacterium tumefaciens", "experiment": "Antimicrobial activity against Rhizobium radiobacter NBRC14554 at 100 ug/ml incubated for 24 hrs by microplate reader assay", "format": "functional, organism-based", "conditions": "dose 100.0 µg/ml"}, "Candida albicans": {"system": "Candida albicans", "experiment": "Antimicrobial activity against Candida albicans NBRC0197 at 100 ug/ml by microplate reader assay", "format": "functional, organism-based", "conditions": "dose 100.0 µg/ml"}}, "note": "Activity calls are given as the source filed them. The calls are words filed in the database; no cut-off is given here. *1 amine or outer side, *2 acyl side, *3 side chain or, on linkers, in order; H or OH if unused. Where a SMILES comes first, the peptide text is derived from it. Bridges are numbered along the chain shown (N, C = ends). CO = O=C([*:1])[*:2]", "data": [{"smiles": "O=C(Cn1ccnc1[N+](=O)[O-])NCc1ccccc1", "note": "[BENZNIDAZOLE]", "values": [{"measurement": "IC50", "setting": "Trypanosoma cruzi", "value": 20, "unit": "µM"}]}, {"smiles": "CC[C@H](C)[C@@H]1NC(=O)[C@@H](NC(=O)[C@H](CC(C)C)NC(=O)N[C@@H](Cc2ccccc2)C(=O)O)Cc2cn(c3ccccc23)C(=O)[C@H](CC(C)C)NC(=O)[C@H](CCCNC(=N)N)NC1=O", "note": "({Phe-CO}-LWIRL; lactam 2-C)", "values": [{"measurement": "IC50", "setting": "Trypanosoma cruzi", "value": 4.1, "unit": "µM"}, {"measurement": "Activity", "setting": "P338", "value": "inactive"}, {"measurement": "Activity", "setting": "Kocuria rhizophila", "value": "inactive"}, {"measurement": "Activity", "setting": "Staphylococcus aureus", "value": "inactive"}, {"measurement": "Activity", "setting": "Escherichia coli", "value": "inactive"}, {"measurement": "Activity", "setting": "Ralstonia solanacearum", "value": "inactive"}, {"measurement": "Activity", "setting": "[1]", "value": "inactive"}, {"measurement": "Activity", "setting": "Candida albicans", "value": "inactive"}]}]}
